From ChEMBL document CHEMBL1152119, “4-(3-furyl)-2-(4-methylpiperazino)pyrimidines: Potent 5-HT2A receptor antagonists” (Bioorg Med Chem Lett, 1997) come the findings set out here.

Test [1] addresses T1, 5-hydroxytryptamine receptor 1A (Rattus norvegicus, UniProt P19327).
T1 sequence (P19327 whole entry): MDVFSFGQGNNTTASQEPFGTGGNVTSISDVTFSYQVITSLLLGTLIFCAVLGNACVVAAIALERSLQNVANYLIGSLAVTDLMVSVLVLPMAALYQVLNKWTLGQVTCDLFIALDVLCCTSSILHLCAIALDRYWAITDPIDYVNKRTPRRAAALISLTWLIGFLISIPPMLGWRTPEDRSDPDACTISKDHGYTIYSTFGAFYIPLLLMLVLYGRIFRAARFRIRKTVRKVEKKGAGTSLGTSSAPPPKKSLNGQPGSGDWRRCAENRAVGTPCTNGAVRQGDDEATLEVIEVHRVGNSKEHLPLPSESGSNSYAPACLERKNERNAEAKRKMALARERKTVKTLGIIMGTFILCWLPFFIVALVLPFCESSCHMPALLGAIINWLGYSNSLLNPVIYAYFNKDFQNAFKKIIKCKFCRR
Briefly: Displacement of [3H]8-OH-DPAT binding to 5-hydroxytryptamine 1A receptor of rat brain hippocampus. Type of test: tissue-based.

For test [2], the target named is 5-hydroxytryptamine receptor 2A (Rattus norvegicus, UniProt P14842). Briefly: Displacement of [3H]ketanserin from 5-hydroxytryptamine 2A receptor of rat brain cortex. (In general: Loss of bound radioactivity is the signal in a displacement assay; it reports binding, not function.)
Chain of 5-hydroxytryptamine receptor 2A (P14842 whole entry): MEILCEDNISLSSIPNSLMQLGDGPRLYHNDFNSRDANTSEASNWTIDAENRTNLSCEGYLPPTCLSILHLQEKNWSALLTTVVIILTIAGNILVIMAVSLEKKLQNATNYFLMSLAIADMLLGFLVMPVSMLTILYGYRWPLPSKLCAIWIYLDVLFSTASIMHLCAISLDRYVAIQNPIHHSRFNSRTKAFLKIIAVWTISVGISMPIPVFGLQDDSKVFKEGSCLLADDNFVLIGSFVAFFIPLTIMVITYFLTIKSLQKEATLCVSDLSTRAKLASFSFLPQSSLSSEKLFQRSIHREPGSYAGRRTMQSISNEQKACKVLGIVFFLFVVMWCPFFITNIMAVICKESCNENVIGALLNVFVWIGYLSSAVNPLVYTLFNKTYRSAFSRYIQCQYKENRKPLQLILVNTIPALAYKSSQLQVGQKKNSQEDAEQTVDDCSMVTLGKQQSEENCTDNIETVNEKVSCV
The test system of another test is Mus musculus. Briefly: Inhibitory dose against (+/-)DOI induced (2.5 mg/kg, ip) head twitch response in mice. Conditions: read-out: ID50 (the source's name). It counts as functional.
The test system of test [3] is Rattus norvegicus. Briefly: Percent activity for blocking of discriminative property stimulated by (+/-) DOI in rats at 20 mg/kg(+/-DOI 0.35 mg/kg administered to animals pretreated with compound). It counts as functional.
The test system of test [4] is Rattus norvegicus. Briefly: Blocking of discriminative property stimulated by DOI in rats at 20 mg/kg dose, activity expressed as response/min(+/-DOI 0.35 mg/kg administered to animals pretreated with compound). It counts as functional.
Test [5] has as its system Rattus norvegicus. Briefly: Number of responding rats/number of rats to receive the compound at a dose of 20 mg/kg, +/-DOI 0.35 mg/kg was administered intraperitoneally 60 min before test; 6/6. Type of test: functional, organism-based.
Test [6] deals with Rattus norvegicus. Briefly: Blocking of discriminative property stimulated by DOI in rats at 10 mg/kg dose, activity expressed as response/min(+/-DOI 0.35 mg/kg administered to animals pretreated with compound). Type of test: functional.
Test [7] deals with Rattus norvegicus. Briefly: Percent activity for blocking of discriminative property stimulated by (+/-) DOI in rats at 10 mg/kg(+/-DOI 0.35 mg/kg administered to animals pretreated with compound). Type of test: functional.
Test [8] deals with Rattus norvegicus. Briefly: Number of responding rats/number of rats to receive the compound at a dose of 10 mg/kg, +/-DOI 0.35 mg/kg was administered intraperitoneally 60 min before test; 8/8. Type of test: functional, organism-based.
The subject of test [9] is Rattus norvegicus. Nature of the test: Percent activity for blocking of discriminative property stimulated by (+/-) DOI in rats at 5 mg/kg(+/-DOI 0.35 mg/kg administered to animals pretreated with compound). It counts as functional.
In test [10] the test system is Rattus norvegicus. Nature of the test: Number of responding rats/number of rats to receive the compound at a dose of 10mg/kg, +/-DOI 0.35 mg/kg was administered intraperitoneally 60 min before test; 6/6. It counts as functional, organism-based. On the set-up: dose 0.35 mg/kg.
Test [11] deals with Rattus norvegicus. Briefly: Number of responding rats/number of rats to receive the compound at a dose of 5 mg/kg, +/-DOI 0.35 mg/kg was administered intraperitoneally 60 min before test; 9/9. Type of test: functional, organism-based.
The subject of test [12] is Rattus norvegicus. Nature of the test: Blocking of discriminative property stimulated by DOI in rats at 5 mg/kg dose, activity expressed as response/min(+/-DOI 0.35 mg/kg administered to animals pretreated with compound). It counts as functional.
For test [13], the system named is Rattus norvegicus. Nature of the test: Number of responding rats/number of rats to receive the compound at a dose of 10 mg/kg, +/-DOI 0.35 mg/kg was administered intraperitoneally 60 min before test; 7/7. Type of test: functional, organism-based.
Test [14] relates to Rattus norvegicus. Nature of the test: Blocking of discriminative property stimulated by DOI in rats at 15 mg/kg dose, activity expressed as response/min(+/-DOI 0.35 mg/kg administered to animals pretreated with compound). Type of test: functional.
Test [15] deals with Rattus norvegicus. Briefly: Number of responding rats/number of rats to receive the compound at a dose of 15mg/kg, +/-DOI 0.35 mg/kg was administered intraperitoneally 60 min before test; 7/7. On the set-up: dose 0.35 mg/kg. Type of test: functional, organism-based.
Test [16] concerns Rattus norvegicus. Briefly: Percent activity for blocking of discriminative property stimulated by (+/-) DOI in rats at 15 mg/kg(+/-DOI 0.35 mg/kg administered to animals pretreated with compound). Type of test: functional.
For test [17], the system named is Rattus norvegicus. Briefly: Percent activity for blocking of discriminative property stimulated by (+/-) DOI in rats at 0.15 mg/kg(+/-DOI 0.35 mg/kg administered to animals pretreated with compound). It counts as functional.
For test [18], the system named is Rattus norvegicus. Briefly: Percent activity for blocking of discriminative property stimulated by (+/-) DOI in rats at 0.35 mg/kg(+/-DOI 0.35 mg/kg administered to animals pretreated with compound). It counts as functional.
Test [19] concerns Rattus norvegicus. Nature of the test: Blocking of discriminative property stimulated by DOI in rats at 0.15 mg/kg dose, activity expressed as response/min(+/-DOI 0.35 mg/kg administered to animals pretreated with compound). It counts as functional.
Test [20] relates to Rattus norvegicus. Nature of the test: Blocking of discriminative property stimulated by DOI in rats at 0.35 mg/kg dose, activity expressed as response/min(+/-DOI 0.35 mg/kg administered to animals pretreated with compound). It counts as functional.
Test [21] has as its system Rattus norvegicus. Nature of the test: Blocking of discriminative property stimulated by DOI in rats at 0.25 mg/kg dose, activity expressed as response/min(+/-DOI 0.35 mg/kg administered to animals pretreated with compound). Type of test: functional.
In test [22] the test system is Rattus norvegicus. Briefly: Percent activity for blocking of discriminative property stimulated by (+/-) DOI in rats at 0.25 mg/kg(+/-DOI 0.35 mg/kg administered to animals pretreated with compound). Type of test: functional.
The test system of test [23] is Rattus norvegicus. Briefly: Percent activity for blocking of discriminative property stimulated by (+/-) DOI in rats at 1 mg/kg(+/-DOI 0.35 mg/kg administered to animals pretreated with compound). It counts as functional.
The subject of test [24] is Rattus norvegicus. Briefly: Blocking of discriminative property stimulated by DOI in rats at 1 mg/kg dose, activity expressed as response/min(+/-DOI 0.35 mg/kg administered to animals pretreated with compound). Type of test: functional.
The test system of test [25] is Rattus norvegicus. Briefly: Number of responding rats/number of rats to receive the compound at a dose of 1 mg/kg, +/-DOI 0.35 mg/kg was administered intraperitoneally 60 min before test; 9/9. Type of test: functional, organism-based.

Calls of active or inactive are those of the source. The rule behind the calls is not given here.

The term Ki denotes the equilibrium dissociation constant of an inhibitor or competing ligand from its target. A high value points to lower affinity. In the case of `CN1CCN(c2nccc(-c3ccccc3)n2)CC1`, the Ki was 613 nM in test [1] and 2100 nM in test [2].

`CN1CCN(c2nccc(-c3ccco3)n2)CC1`: the figures for the Ki in test [1] and in test [2] were 810 nM and 745 nM, respectively.

`CN1CCN(c2nccc(-c3ccoc3)n2)CC1`: in the test on Mus musculus, the ED50 worked out at 9.7 mg/kg. In addition, the Ki in test [1] was 700 nM; in test [2], 10 nM. Besides, the Activity in the test with Rattus norvegicus [3] was found to be 6.6%. Moreover, the Response in the test on Rattus norvegicus [4] was 84.7 min⁻¹. For the same compound, the No. of animals result in the test on Rattus norvegicus [5] was “Active”.

`CN1CCN(c2nc(-c3ccoc3)cc(-c3ccco3)n2)CC1`: in the test with Mus musculus, the ED50 stood at 2.7 mg/kg. For the same compound, the Ki in test [1] amounted to 415 nM; in test [2] it was 13 nM. Moreover, in the test on Rattus norvegicus [6], the Response is 85.1 min⁻¹. Also, in the test with Rattus norvegicus [7], the Activity was found to be 4%. Further, the No. of animals entry in the test on Rattus norvegicus [8] was “Active”.

Consider `CN1CCN(c2nc(-c3ccoc3)cc(-c3ccoc3)n2)CC1`, for which the ED50 in the test on Mus musculus is 2.4 mg/kg. Moreover, the Activity in the test with Rattus norvegicus [9] is reported as 31.1%; in the test on Rattus norvegicus [7] it was 2.8%. Also, the Ki turned out to be 621 nM in test [1] and 8 nM in [2]. In addition, the figures for the Response in the test on Rattus norvegicus [6] and in the test with Rattus norvegicus [12] were 72.5 min⁻¹ and 84.3 min⁻¹, respectively. Moreover, the No. of animals result in the test with Rattus norvegicus [10] and in the test with Rattus norvegicus [11] was “Active” throughout.

`CN1CCN(c2nc(-c3ccccc3)cc(-c3ccoc3)n2)CC1`: the No. of animals entry in the test on Rattus norvegicus [13] was “Active”. The ED50 with Mus musculus came to 3.9 mg/kg. Moreover, the values for the Ki in [1] and in test [2] were 1340 nM and 9 nM, respectively. The Response in the test on Rattus norvegicus [6] is 86.6 min⁻¹. Moreover, the Activity in the test with Rattus norvegicus [7] turned out to be 7.2%.

With `CN1CCN(c2nc(-c3ccoc3)cc(-c3cccs3)n2)CC1`, the Response in the test on Rattus norvegicus [14] amounted to 66.2 min⁻¹; with Rattus norvegicus [6], 60.3 min⁻¹. Also, the ED50 with Mus musculus worked out at 4.2 mg/kg. For the same compound, the Ki came out at 2240 nM in test [1] and 10 nM in test [2]. The No. of animals result with Rattus norvegicus [15] and in the test with Rattus norvegicus [8] was “Active” in each case. Further, the Activity came out at 47.3% in the test with Rattus norvegicus [7] and 11.2% in the test with Rattus norvegicus [16].

Take `COc1cc(CC(C)N)c(OC)cc1I` (racemic): the Activity turned out to be 37.5% with Rattus norvegicus [17], 100% in the test on Rattus norvegicus [18] and 63.1% in the test on Rattus norvegicus [22]. Besides, the Response turned out to be 81.3 min⁻¹ in the test with Rattus norvegicus [19], 74.7 min⁻¹ in the test with Rattus norvegicus [20] and 79.5 min⁻¹ with Rattus norvegicus [21].

As for `CN1CCC(=C2c3ccccc3C=Cc3ccccc32)CC1` [CYPROHEPTADINE], in the test with Mus musculus, the ED50 is 0.4 mg/kg. Further, the Activity in the test with Rattus norvegicus [23] stood at 7.1%. The Response with Rattus norvegicus [24] was found to be 85.8 min⁻¹. In the test on Rattus norvegicus [25], the No. of animals result is “Active”.

For the compound `Cc1cc(-c2ccoc2)nc(N2CCN(C)CC2)n1`, the values for the Ki in [1] and in [2] were 265 nM and 50 nM, respectively.

Take `CN1CCN(c2nc(-c3cccs3)cc(-c3cccs3)n2)CC1`: the Ki in [1] came to 972 nM; in [2], 8 nM.

`CN1CCN(c2nccc(-c3cccs3)n2)CC1`: the Ki came to 484 nM in [1] and 208 nM in [2].
